From patent US6809208B2, “3-Arylbenzofuranones with electron-withdrawing substituents as stabilizers” (Ciba Specialty Chemicals Corporation, priority 2000, dated 2004)

Legend:
[1] = Prevention of migration of the oxidized developer in a color photographic material (three layer test elements, interlayer scavenger); settings: 20 mg.m^−2 scavenger in interlayer; AGFA P-94 developing process; control without scavenger 0.293
Description: To evaluate compounds of this invention with respect to their ability as interlayer scavengers for oxidized developing agent, three layer photographic test elements are prepared by providing layers in the order indicated on a polyethylene-coated paper support:
(2) An interlayer containing:
The test elements are imagewise exposed through a step wedge with density increment 0.15 and thereafter subjected to the AGFA P-94 developing process.
Upon processing of the test elements, some oxidized developer is prone to migrate from the layer in which it is formed, for example the undermost, magenta-dye-providing layer, to the topmost layer containing the cyan-dye-forming coupler, thereby producing unwanted cyan dye. The amount of cyan dye that is generated depends on the ability of the interlayer to prevent the diffusion of oxidized developer.

[2] = Stabilization of multiple-extruded polypropylene; settings: 0.05% of compound; heating zones 260, 270, 280° C.; measured at 230° C./2.16 kg; without compound 17.5
Description: 1.3 kg of polypropylene powder (Profax 6501), which has been prestabilized with 0.025% of Irganox®1076 (n-octadecyl 3-[3,5-di-tert-butyl-4-hydroxyphenyl]propionate) (melt index 3.2 g/10 min, measured at 230° C./2.16 kg) are blended with 0.05% of Irganox®1010 (pentaerythritol tetrakis[3-(3,5-di-tert-butyl-4-hydroxyphenyl)propionate]), 0.05% of calcium stearate, 0.03% of DHT 4A® (Kyowa Chemical Industry Co., Ltd., [Mg4.5Al2(OH)13CO3.3.5H2O]) and 0.05% of compound of Table 4. This blend is then extruded in an extruder having a cylinder diameter of 20 mm and a length of 400 mm at 100 rpm, the 3 heating zones being adjusted to the following temperatures: 260, 270, 280° C. The extrudate is cooled by drawing it through a water bath and is then granulated. This granulate is repeatedly extruded. After 3 extrusions, the melt index is measured (at 230° C./2.16 kg). A substantial increase in the melt index denotes pronounced chain degradation, i.e. poor stabilization.

[3] = Stabilization of polyethylene during processing (Brabender plastograph); settings: 0.05 part compound and 0.05 part Irganox 1010 per 100 parts polyethylene; 220° C., 50 rpm; without compound 9.7
Description: 100 parts of polyethylene powder (Lupolen®5260 Z) are blended with 0.05 part of Irganox®1010 (pentaerythritol tetrakis[3-(3,5-di-tert-butyl-4-hydroxyphenyl)propionate]) and 0.05 part of a compound of Table 5 and the blend is kneaded in a Brabender plastograph at 220° C. and 50 rpm. During this time the kneading resistance is recorded continuously as torque. In the course of the kneading time the polymer begins to crosslink after prolonged constancy, as can be determined by the rapid increase in torque. The time taken until a marked increase in torque is shown in Table 5 as a measure of the stabilizing action. The longer this time is the better the stabilizing action.

[4] = Stabilization of polycarbonate (Weather-O-Meter exposure); settings: 0.30% stabilizer; Weather-O-Meter WOM CI 65; without stabilizer 30.2
Description: 1.0 kg of a polycarbonate powder which has been dried for 8 hours at 120° C. in a vacuum drying oven (Lexan®145, of General Electric) is charged with the stabilizers listed in Table 21 and is mixed for 2 minutes in a Henschel mixer. This mixture is then extruded in a Schwabenthan extruder at a maximum of 280° C. The polymer string is then granulated. Using an injection moulding machine, plates having a layer thickness of 2 mm are then moulded from the granulate so obtained at a maximum of 300° C. These plates are then irradiated in a Weather-O-Meter (WOM CI 65) for 2500 hours at a black standard temperature of 63° C., at a dry/wet cycle of 102/18 minutes and at an intensity of 0.35 W/m^2 at 340 nm. The yellowness index (YI) of these plates is then determined according to ASTM D 1925-70. Low YI values denote little discoloration, high YI values high discoloration of the plates. […]

[5] = Stabilisation of polybutylene terephthalate (impact strength in oven-ageing test at 160° C.); settings: for Impact strength after 360 h: without stabilizer 26
Description: 1.0 kg of a polybutylene terephthalate powder which has been dried for 10 hours at 100° C. in a vacuum drying oven (Crastin®S600, of Ciba Specialty Chemicals Inc.) is charged with the stabilizers listed in Table 20 and is mixed for 2 minutes in a Henschel mixer. This mixture is then extruded in a twin-screw extruder (type Berstorff) at a maximum of 250° C. and is then granulated. In an injection moulding apparatus, the granulate so obtained is moulded at a maximum of 260° C. to little rods 4×6 mm thick and 50 mm long. These little rods are then aged in a circulating air oven at 160° C. After 360 hours the impact strength of the rods is measured in KJ/m^2. The higher the values, the better the stabilization.

[6] = Stabilization of polycarbonate (oven ageing at 135° C., yellowness index and transmission); settings: 0.01% stabilizer; for Yellowness index prior to oven-ageing: 2 mm plates, ASTM D 1925-70; for Transmission in % prior to oven-aging / Transmission in % after 2000 hours at 135° C.: at 450 nm; for Transmission in % after 2000 hours at 135° C.: without stabilizer 76.4; for Yellowness index after 2000 hours at 135° C.: circulating air oven, without stabilizer 25.0
Description: This mixture is then extruded in a Schwabenthan extruder at a maximum of 280° C. The polymer string is then granulated. Using an injection moulding machine, plates having a layer thickness of 2 mm are then moulded from the granulate so obtained at a maximum of 300° C. […] Low YI values denote little discoloration, high YI values high discoloration of the patterns. […] The results are compiled in Tables 17 and 18.

[7] = Stabilization of multiple-extruded polypropylene at high temperature; set-up: unit not given here; settings: measured at 230° C./2.16 kg
Description: This blend is then extruded in an extruder having a cylinder diameter of 20 mm and a length of 400 mm at 100 rpm, the 3 heating zones being adjusted to the following temperatures: 280, 320, 340° C. The extrudate is cooled by drawing it through a water bath and is then granulated. This granulate is repeatedly extruded. […] A substantial increase in the melt index denotes pronounced chain degradation, i.e. poor stabilization.

[8] = Light-colored SBR-vulcanisate, ozone atmosphere for 96 hours: crack formation; set-up: key: grade 0: Grade 0 denotes no cracks; grade 1 denotes narrow flat cracks; grade 2 denotes moderately broad, moderately deep cracks, clearly visible; grade 3 denotes broad and deep cracks; settings: 2.0 phr stabilizer, ozone 50 pphm, 40° C., dynamic elongation, without stabilizer grade 2
Description: (§1) 100 parts by weight of Cariflex®S-1502 (styrene/butadiene rubber, Shell) are processed at 60° C., in a mixing mill, with 30.0 parts by weight of Kronos®CL 220 [titanium dioxide (pigment), Kronos Titan GmbH], 30.0 parts by weight of Aktisil®MM [kaolin (filler), Hoffmann Mineral, Neuburg/Donau], 5.0 parts by weight of Naftolen®N 401 [plasticiser, Metallgesellschaft], 10.0 parts by weight of zinc oxide [vulcanization activator], 2.0 parts by weight of stearic acid [vulcanization activator], 2.0 parts by weight of sulfur [vulcanizing agent], 1.0 part by weight of Vulkacit®MOZ [vulcanization accelerator, Bayer], 0.25 part by weight of Vulkacit®Thiuram [vulcanization accelerator, […], to form a homogeneous mixture, the vulcanization system (sulfur, Vulkacit®MOZ and Vulkacit®Thiuram) not being added until the end of the mixing process. The mixture is vulcanized in electrical vulcanization presses at 150° C. until T95 is reached in the rheometer curves to form elastomer plates 2 mm thick, 21 cm long and 8.0 cm wide.
Some of the elastomer plates so obtained are tested for the action of ozone according to the ASTM standard D 3395-86 while subject to dynamic elongation. In this test the plates are first stored for 30 days in a standard atmosphere [23/50 SN-ISO 291]. Test specimens measuring 20 cm by 1 cm are then punched out and exposed to an ozone atmosphere for 96 hours (ozone content: 50 pphm; temperature: 40° C.; humidity: 50% rel.; elongation: 0 to 25%; elongation rate: 0.5 Hz; number of load cycles: approximately 173 000). The test plates are then assessed for crack formation according to ASTM D 3395-86. Grade 0 denotes no cracks; grade 1 denotes narrow flat cracks; grade 2 denotes moderately broad, moderately deep cracks, clearly visible; grade 3 denotes broad and deep cracks. The lower the grade number, the better the stabilization of the elastomer plates.

[9] = Light-colored SBR-vulcanisate (Example 23): ΔL-color after 3 weeks in diffuse daylight; settings: 2.0 phr stabilizer; 3 weeks at room temperature in diffuse daylight; scale 0 to 100, 100 = no discoloration; without stabilizer 97
Description: as §1
The remaining elastomer plates are stored for 3 weeks at room temperature in a standard laboratory atmosphere in diffuse daylight. The ΔL-color of those plates is then determined according to DIN 6167, which corresponds to a scale of from 0 to 100. No discoloration is indicated by a value of 100.

Compound: COC(=O)c1ccc(C2C(=O)Oc3c2cc(C(C)(C)C)cc3C(C)(C)C)cc1 (stereo not shown) [Compound (109), 5,7-di-tert-butyl-3-(4-methoxycarbonylphenyl)-3H-benzofuran-2-one]
- Cyan density at a magenta density of 1.5 [1]: 0.254
- Melt index after 3 extrusions [2]: 4.8
- Time until increase in torque [3]: 27.5 min

Compound: CC(C)(C)CC(C)(C)c1cc(Cc2cc(C(C)(C)CC(C)(C)C)cc(-n3nc4ccccc4n3)c2O)c(O)c(-n2nc3ccccc3n2)c1 [Tinuvin ®360]
- Yellowness index after 2500 h exposure to light [4]: 16.6

Compound: CCCCCCOc1ccc(-c2nc(-c3ccccc3)nc(-c3ccccc3)n2)c(O)c1 [Tinuvin ®1577]
- Yellowness index after 2500 h exposure to light [4]: 11.2

Compound: CC(C)(c1ccccc1)c1cc(-n2nc3ccccc3n2)c(O)c(C(C)(C)c2ccccc2)c1 [Tinuvin ®234]
- Yellowness index after 2500 h exposure to light [4]: 17.8

Compound: Cc1cc(CCC(=O)OCCOCCOCCOC(=O)CCc2cc(C)c(O)c(C(C)(C)C)c2)cc(C(C)(C)C)c1O [Irganox ®245]
- Impact strength after 0 h ([5]; 0.05% stabilizer): 132 KJ/m^2
- Impact strength after 360 h ([5]; 0.05% stabilizer): 111 KJ/m^2
- Impact strength after 0 h ([5]; 0.10% stabilizer): 135 KJ/m^2
- Impact strength after 360 h ([5]; 0.10% stabilizer): 114 KJ/m^2

Compound: CCCCCCCCCCCCCCCCCCOC(=O)c1ccc(C2C(=O)Oc3c2cc(C(C)(C)C)cc3C(C)(C)C)cc1 (stereo not shown) [Compound (112)]
- Yellowness index prior to oven-ageing [6]: 3.5
- Transmission in % prior to oven-aging [6]: 85.9%
- Transmission in % after 2000 hours at 135° C. [6]: 81.8%
- Yellowness index after 2000 hours at 135° C. [6]: 14.3

Compound: CC(C)(C)c1cc2c(c(C(C)(C)C)c1)OC(=O)C2c1ccc(C#N)cc1 (stereo not shown) [Compound (106), 5,7-di-tert-butyl-3-(4-cyanophenyl)-3H-benzofuran-2-one]
- melting point: 136 to 137 °C

Compound: CC(C)(C)c1cc2c(c(C(C)(C)C)c1)OC(=O)C2c1ccc(F)cc1 (stereo not shown) [(105), 5,7-di-tert-butyl-3-(4-fluorophenyl)-3H-benzofuran-2-one]
- Melt index after 3 extrusions [2]: 4.7
- Time until increase in torque [3]: 27.0 min
- melting point: 146 to 147 °C

Compound: CC(C)(C)c1cc2c(c(C(C)(C)C)c1)OC(=O)C2c1ccc(C(F)(F)F)cc1 (stereo not shown) [Compound (101), 5,7-di-tert-butyl-3-(4-trifluoromethyl-phenyl)-3H-benzofuran-2-one]
- Cyan density at a magenta density of 1.5 [1]: 0.253
- Melt index after 3 extrusions [2]: 4.7
- Time until increase in torque [3]: 27.5 min
- Melt index after 5 extrusions ([7]; 280° C., stabilizer 0.015% by weight): 8.5
- Melt index after 5 extrusions ([7]; 320° C., stabilizer 0.015% by weight): 19.6
- Melt index after 5 extrusions ([7]; 340° C., stabilizer 0.015% by weight): 22.5
- Yellowness index prior to oven-ageing [6]: 3.4
- Transmission in % prior to oven-aging [6]: 85.8%
- Transmission in % after 2000 hours at 135° C. [6]: 81.3%
- Yellowness index after 2000 hours at 135° C. [6]: 16.4
- Crack formation according to ASTM D 3395-86 [8]: grade 1
- ΔL-color according to DIN 6167 [9]: 95
- melting point: 127 to 128 °C

Compound: CC(C)(C)c1ccc(OP(Oc2ccc(C(C)(C)C)cc2C(C)(C)C)c2ccc(-c3ccc(P(Oc4ccc(C(C)(C)C)cc4C(C)(C)C)Oc4ccc(C(C)(C)C)cc4C(C)(C)C)cc3)cc2)c(C(C)(C)C)c1 [Sandostab ®P-EPQ, tetrakis(2,4-di-tert-butylphenyl)-4,4′-biphenylene diphosphonite]
- Melt index after 5 extrusions ([7]; 280° C., stabilizer 0.050% by weight): 6.3
- Melt index after 5 extrusions ([7]; 320° C., stabilizer 0.050% by weight): 23.9
- Melt index after 5 extrusions ([7]; 340° C., stabilizer 0.050% by weight): 61.5
